Active and inactive are the calls of the source. The rule behind the calls is not given here.
What was measured:
[1] = Antioxidant activity assessed as trolox equivalent of AAPH-induced radical scavenging activity incubated for 10 mins prior to APPH challenge measured every minute for 120 mins by ORAC assay; type: functional
[2] = Inhibition of amyloid beta (1-42) aggregation at 20 uM after 48 hrs by thioflavin T fluorescence method relative to control
[3] = tested on: SH-SY5Y; test: Neuroprotective activity in human SH-SY5Y cells assessed as decrease in tertiary butylhydroperoxide-induced radical formation incubated for 24 hrs prior to tertiary butylhydroperoxide challenge measured after 30 mins by DCFH-DA staining-based fluorescence assay; type: functional, cell-based
[4] = tested on: SH-SY5Y; test: Cytotoxicity against human SH-SY5Y cells assessed as cell viability at 60 uM after 48 hrs by MTT assay; type: cell-based
[5] = Inhibition of amyloid beta (1-42) aggregation at 20 uM after 24 hrs by transmission electron microscopy
[6] = tested on: SH-SY5Y; test: Cytotoxicity against human SH-SY5Y cells assessed as cell viability at 12.5 to 25 uM after 48 hrs by MTT assay; type: cell-based
[7] = tested on: SH-SY5Y; test: Neuroprotective activity in human SH-SY5Y cells assessed as decrease in tertiary butylhydroperoxide-induced radical formation at 10 uM incubated for 24 hrs prior to tertiary butylhydroperoxide challenge measured after 30 mins by DCFH-DA staining-based fluorescence assay; type: functional; parameters: scale not given: the % may be the effect or the level left
[8] = tested on: SH-SY5Y; test: Cytotoxicity against human SH-SY5Y cells assessed as cell viability at 25 uM after 48 hrs by MTT assay; type: cell-based

Compound	Activity [1] [equiv]	inhibition [2] [%]	further results
COc1cc(/C=C/c2ccc(N(C)C)cc2)cc(OC)c1	3.46	7.02	–
CN(C)c1cccc(/C=C/c2cc(O)cc(O)c2)c1	3.93	61.5	–
Oc1ccc(/C=C/c2cc(O)cc(O)c2)cc1 [RESVERATROL]	–	69.7	Activity [3]: Dose-dependent effect; Activity [4]: Toxic; inhibition [5]: Active
CCCN(CCC)c1ccc(/C=C/c2cc(O)cc(O)c2)cc1	2.37	69	–
CNc1ccc(/C=C/c2cc(O)cc(O)c2)cc1	5.54	63.7	Activity [3]: Dose-dependent effect; Activity [6]: Non-toxic
Oc1cc(O)cc(/C=C/c2ccc(NC3CCCC3)cc2)c1	3.37	68.7	–
Oc1cc(O)cc(/C=C/c2ccc(NC3CCCCC3)cc2)c1	2.25	65.5	–
CC(C)Nc1ccc(/C=C/c2cc(O)cc(O)c2)cc1	4.12	71.7	Activity [7]: 37%; Activity [3]: Dose-dependent effect; Activity [6]: Non-toxic; inhibition [5]: Active
CCCNc1ccc(/C=C/c2cc(O)cc(O)c2)cc1	4.33	66.7	–
Oc1cc(O)cc(/C=C/c2ccc(Br)cc2)c1	2.33	25.2	–
CN(C)c1ccc(CCc2cc(O)cc(O)c2)cc1	5.21	48.5	–
CN(C)c1ccc(/C=C/c2cc(O)cc(O)c2)cc1	4.7	65.2	Activity [6]: Non-toxic
CCN(CC)c1ccc(/C=C/c2cc(O)cc(O)c2)cc1	3.31	64.8	–
CN(C)c1ccccc1/C=C/c1cc(O)cc(O)c1	2.05	59.4	–
Oc1cc(O)cc(/C=C/c2ccncc2)c1	1.71	13.6	–
CC(C)(C)c1ccc(/C=C/c2cc(O)cc(O)c2)cc1	1.28	43.6	–
CCNc1ccc(/C=C/c2cc(O)cc(O)c2)cc1	5.19	68.6	Activity [3]: Dose-dependent effect; Activity [8]: Toxic
